Test results: DBAASP
≈ marks a conversion by molar mass, not a printed value.

What was measured:
Experiment in all cases: ≥ marks a high value that may be exact or a test limit, other limits are often not marked, values filed in µg/mL are converted to µM
[1] = system: Staphylococcus aureus ATCC 25923
[2] = system: Escherichia coli ATCC 25922
[3] = system: Pseudomonas aeruginosa ATCC 9027
[4] = system: Pseudomonas aeruginosa ATCC 27853
[5] = system: Staphylococcus aureus ATCC 29213
[6] = system: Staphylococcus aureus ATCC 19636
[7] = system: Enterococcus hirae ATCC 10541
[8] = system: Bacillus thuringiensis ATCC 10792
[9] = system: Micrococcus luteus ATCC 4698
[10] = system: Enterococcus faecium CCT 5079
[11] = system: Streptococcus pneumoniae ATCC 11733
[12] = system: Escherichia coli ATCC 11775
[13] = system: Salmonella enterica subsp. enterica serovar Typhimurium ATCC 14028
[14] = system: Salmonella enterica subsp. enterica serovar Choleraesuis ATCC 10708
[15] = system: Streptococcus mutans AU159
[16] = system: Bacillus cereus ATCC 11778
[17] = system: Pseudomonas aeruginosa ATCC 15422
[18] = system: Pseudomonas aeruginosa ATCC 13388
[19] = system: Staphylococcus aureus CCT 6538
[20] = system: Escherichia coli CCT 1457
[21] = system: Staphylococcus aureus CCT 2580
[22] = system: Staphylococcus epidermidis ATCC 12228
Escherichia coli BW25113 = system: Escherichia coli BW25113
[23] = system: Escherichia coli BW25113 ΔsbmA
[24] = system: Salmonella enterica subsp. enterica serovar Pullorum CVCC 1789
[25] = system: Pseudomonas aeruginosa CICC 10419
[26] = system: Streptococcus suis CVCC 606
[27] = system: Escherichia coli CVCC 195
[28] = system: Staphylococcus aureus ATCC 43300
[29] = system: Escherichia coli CVCC 1515
[30] = system: Bacillus subtilis ATCC 6633
[31] = system: Salmonella enterica subsp. enterica serovar Choleraesuis CVCC 503
[32] = system: Escherichia coli O157:H7 CICC 21530
[33] = system: Pseudomonas aeruginosa CICC 21630
[34] = system: Enterococcus faecium CMCC 1.2136
[35] = system: Salmonella enterica subsp. enterica serovar Pullorum CVCC 1802
[36] = system: Salmonella enterica subsp. enterica serovar Enteritidis CVCC 3377
Pseudomonas aeruginosa = system: Pseudomonas aeruginosa
[37] = system: Escherichia coli BL21(DE3)
Escherichia coli C600 = system: Escherichia coli C600
[38] = system: Staphylococcus aureus 209P
[39] = system: Bacillus subtilis VKM B-501

SMILES: CC(C)C[C@H](NC(=O)[C@H](Cc1c[nH]c2ccccc12)NC(=O)[C@H](CCCCN)NC(=O)[C@H](CC(C)C)NC(=O)[C@H](Cc1c[nH]c2ccccc12)NC(=O)[C@H](C)NC(=O)[C@H](CCCN=C(N)N)NC(=O)[C@H](Cc1c[nH]c2ccccc12)NC(=O)[C@H](CCCCN)NC(=O)[C@@H](N)CCCCN)C(=O)N[C@@H](C)C(=O)N[C@@H](CCCCN)C(=O)N[C@@H](CCCCN)C(=O)O [KKWRAWLKWLAKK]
- MIC [1]: 7.17 µM (≈ 12.5 µg/mL)
- MIC [2]: 1.78 µM (≈ 3.1 µg/mL)
- MIC [3]: 1.78 µM (≈ 3.1 µg/mL)
- MIC [4]: 0.918 µM (≈ 1.6 µg/mL)
- MIC [5]: 7.17 µM (≈ 12.5 µg/mL)
- MIC [6]: 0.918 µM (≈ 1.6 µg/mL)

SMILES: CC[C@H](C)[C@H](N)C(=O)N[C@@H](CC(N)=O)C(=O)N[C@@H](Cc1c[nH]c2ccccc12)C(=O)N[C@@H](CC(C)C)C(=O)N[C@@H](C)C(=O)N[C@H](C(=O)N[C@@H](C)C(=O)N[C@@H](C)C(=O)N[C@@H](CCCCN)C(=O)N[C@H](C(=O)N[C@@H](C)C(=O)NCC(=O)N[C@@H](CCSC)C(=O)N[C@@H](CC(C)C)C(N)=O)C(C)C)[C@@H](C)CC [INWLAIAAKVAGML]
- MIC [1]: 10.9 µM (≈ 16 µg/mL)
- MIC [7]: ≥ 170 µM
- MIC [2]: 170 µM (≈ 250 µg/mL)
- MIC [8]: ≥ 85 µM
- MIC [9]: 10.6 µM (≈ 15.6 µg/mL)
- MIC [10]: ≥ 170 µM
- MIC [11]: 0.68 µM (≈ 0.999 µg/mL)
- MIC [12]: ≥ 340 µM
- MIC [13]: 340 µM (≈ 500 µg/mL)
- MIC [14]: ≥ 340 µM
- MIC [15]: ≥ 170 µM
- MIC [16]: ≥ 85 µM
- MIC [17]: ≥ 340 µM
- MIC [18]: ≥ 340 µM
- MIC [19]: 10.9 µM (≈ 16 µg/mL)
- MIC [20]: ≥ 170 µM
- MIC [21]: 2.72 µM (≈ 4 µg/mL)
- MIC [22]: 10.9 µM (≈ 16 µg/mL)

SMILES: CC[C@H](C)[C@H](NC(=O)[C@@H]1CCCN1C(=O)[C@@H]1CCCN1C(=O)[C@H](CCCN=C(N)N)NC(=O)[C@H](Cc1ccccc1)NC(=O)[C@@H](N)CCCN=C(N)N)C(=O)N[C@@H](CCCN=C(N)N)C(=O)N[C@@H](CCCN=C(N)N)C(=O)N1CCC[C@H]1C(=O)N1CCC[C@H]1C(=O)N[C@H](C(=O)N[C@@H](CCCN=C(N)N)C(=O)N1CCC[C@H]1C(=O)N1CCC[C@H]1C(=O)N[C@@H](Cc1ccccc1)C(=O)N[C@@H](CCCN=C(N)N)C(=O)N1CCC[C@H]1C(=O)N1CCC[C@H]1C(=O)N[C@@H](Cc1ccccc1)C(=O)N[C@@H](CCCN=C(N)N)C(=O)N1CCC[C@H]1C(=O)N1CCC[C@H]1C(=O)N[C@H](C(=O)N[C@@H](CCCN=C(N)N)C(=O)N1CCC[C@H]1C(=O)O)C(C)C)[C@@H](C)CC [RFRPPIRRPPIRPPFRPPFRPPVRP]
- MIC (Escherichia coli BW25113): 1 µM (≈ 3.1 µg/mL)
- MIC [23]: 8 µM (≈ 24.8 µg/mL)

SMILES: CC(C)[C@H](NC(=O)CNC(=O)[C@H](CC(N)=O)NC(=O)[C@H](CCCN=C(N)N)NC(=O)[C@H](Cc1ccc(O)cc1)NC(=O)[C@@H](NC(=O)[C@H](C)NC(=O)[C@@H](NC(=O)[C@H](CC(N)=O)NC(=O)[C@H](Cc1c[nH]c2ccccc12)NC(=O)[C@H](C)NC(=O)[C@H](Cc1ccccc1)NC(=O)CN)C(C)C)C(C)C)C(=O)N[C@@H](CCCN=C(N)N)C(=O)N[C@H](C(=O)N[C@@H](C)C(=O)N[C@@H](Cc1cnc[nH]1)C(=O)N[C@@H](CCCN=C(N)N)C(=O)N[C@@H](CCCN=C(N)N)C(=O)N[C@@H](C)C(=O)N[C@@H](CC(N)=O)C(=O)O)C(C)C [GFAWNVAVYRNGVRVAHRRAN]
- MIC [1]: 0.829 µM (≈ 2 µg/mL)
- MIC [24]: ≥ 53 µM
- MIC [25]: ≥ 53 µM
- MIC [26]: ≥ 53 µM
- MIC [27]: 13.3 µM (≈ 32 µg/mL)
- MIC [28]: > 26.5 µM
- MIC [29]: 6.63 µM (≈ 16 µg/mL)
- MIC [30]: 1.66 µM (≈ 4 µg/mL)
- MIC [13]: > 26.5 µM
- MIC [31]: 26.5 µM (≈ 64 µg/mL)
- MIC [32]: 6.63 µM (≈ 16 µg/mL)
- MIC [33]: ≥ 53 µM
- MIC [34]: 6.63 µM (≈ 16 µg/mL)
- MIC [35]: 13.3 µM (≈ 32 µg/mL)
- MIC [36]: 0.414 µM (≈ 1 µg/mL)

SMILES: CC[C@H](C)[C@H](NC(=O)[C@@H]1CCCN1C(=O)[C@H](CC(C)C)NC(=O)[C@H](CC(C)C)NC(=O)[C@H](CCCCN)NC(=O)[C@@H](N)CCCCN)C(=O)N[C@H](C(=O)N[C@@H](CCCCN)C(=O)N[C@@H](CC(N)=O)C(=O)N[C@@H](CC(C)C)C(=O)N[C@@H](CC(C)C)C(=O)N[C@@H](CCCCN)C(=O)N[C@@H](CO)C(=O)N[C@@H](CC(C)C)C(=O)N[C@@H](CC(C)C)C(=O)O)C(C)C [KKLLPIVKNLLKSLL]
- MIC (Pseudomonas aeruginosa): 2.5 µM (≈ 4.3 µg/mL)
- MIC [37]: 0.2 µM (≈ 0.344 µg/mL)
- MIC [22]: 0.025 µM (≈ 0.043 µg/mL)

SMILES: CC[C@H](C)[C@H](NC(=O)[C@H](C)NC(=O)[C@H](CCCCN)NC(=O)[C@H](CCCN=C(N)N)NC(=O)CNC(=O)[C@H](CCCCN)NC(=O)[C@H](CCCCN)NC(=O)[C@H](CCCCN)NC(=O)[C@@H](NC(=O)[C@H](CC(C)C)NC(=O)[C@H](CCCCN)NC(=O)CNC(=O)[C@H](Cc1ccccc1)NC(=O)[C@H](CC(C)C)NC(=O)CN)[C@@H](C)CC)C(=O)N[C@@H](CO)C(=O)N[C@@H](Cc1ccc(O)cc1)C(=O)N[C@@H](C)C(=O)N[C@H](C(=O)N[C@@H](CCCCN)C(=O)N[C@@H](CCCCN)C(=O)N[C@@H](C)C(=O)N[C@@H](CCCN=C(N)N)C(=O)NCC(=O)N[C@@H](CCCCN)C(=O)N[C@@H](Cc1cnc[nH]1)C(=O)O)C(C)C [GLFGKLIKKKGRKAISYAVKKARGKH]
- MIC (Escherichia coli C600): 6 µM (≈ 17.3 µg/mL)
- MIC [38]: 18 µM (≈ 51.9 µg/mL)
- MIC [39]: 0.7 µM (≈ 2.02 µg/mL)
